Test results from publication PMC12040169 (PLOS Biology, 2025).

Assay: in vitro
Conditions: human, hela cells, % viability

Structure (SMILES) | viability at 28.5 h, 10 µM
COc1ccccc1N1CCN(CC(=O)Nc2cc(Cl)ccc2C)CC1 [CBK270087] | 105%
N#Cc1ccccc1NC(=O)CN1CCCCCC1 [CBK270088] | 87.8%
O=C(CSc1nnnn1-c1cccnc1)NC1CCCCCC1 [CBK270092] | 83.9%
COc1cc(Br)c(-c2nnn[nH]2)cc1OC [CBK270093] | 108%
Cn1c(=O)n(C)c2cc(NC(=O)CN(c3ccccc3)S(C)(=O)=O)ccc21 [CBK270094] | 103%
Cc1nonc1NC(=O)CSc1nc2cc(Cl)ccc2[nH]1 [CBK270095] | 84.8%
Cc1cccc(C)c1OCC(=O)Nc1ccccc1C(=O)N1CCOCC1 [CBK270096] | 91.2%
CCc1cc(S(=O)(=O)NC2CC(C)(C)NC(C)(C)C2)ccc1OC [CBK270097] | 92%
CCc1ccc(OC)c(S(=O)(=O)NC2CC(C)(C)NC(C)(C)C2)c1 [CBK270098] | 101%
Nc1ccc(OCc2nc3ccccc3n2CC(=O)O)cc1 [CBK270099] | 96%
O=C(O)CCCn1cc(NC(=O)c2ccccc2Br)cn1 [CBK270100] | 82.9%
CCn1c(SCC(=O)Nc2ccc(C#N)cc2)nnc1-c1ccncc1 [CBK270102] | 96.4%
Cc1ccc(Cl)cc1NC(=O)CCn1cnc2ccccc2c1=O [CBK270103] | 95.1%
Cn1ncc(N)c1C(=O)Nc1cccc(Cl)c1 [CBK270107] | 87.6%
CCOc1cc(S(=O)(=O)NCCCN2CCOCC2)ccc1Br [CBK270111] | 87.4%
OCc1nc2ccccc2n1CCCCOc1ccccc1Cl [CBK270117] | 106%
O=C(O)CCCn1cc(NC(=O)c2cccs2)cn1 [CBK270122] | 88.1%
CC(=O)NCc1nnc2c3ccccc3c(-c3ccccc3)nn12 [CBK270123] | 92.3%
Cc1cccc(Cn2nc(C)c(NC(=O)c3ccncc3)c2C)c1 [CBK270126] | 97.2%
O=C(CCn1cnnn1)Nc1cc(C(F)(F)F)ccc1Cl [CBK270127] | 91.4%
CCOC(=O)C1CCN(CCOc2ccc3ccccc3c2)CC1 [CBK270128C] | 95.4%
Cc1cc(CNC(=O)COc2ccc(C#N)cc2)c2ccccc2n1 [CBK270129] | 87.6%
COc1ccc(-c2ccc(=O)n(CCN)n2)cc1 [CBK270130C] | 97.2%
CN(C)S(=O)(=O)c1cccc(C(=O)NCc2ccco2)c1 [CBK270135] | 94.7%

Structure (SMILES) | viability at 28.5 h, 10 µM
Cc1ccc(NC(=O)CSc2cnn[nH]2)cc1 [CBK270136] | 86.2%
O=C(NCCCO)C1CCCN(S(=O)(=O)c2ccc3ccccc3c2)C1 (stereo not shown) [CBK270141] | 88.3%
CCC(Oc1ccccc1C)C(=O)Nc1ccccc1C(=O)N(C)C (stereo not shown) [CBK270144] | 88.4%
CCOc1ccc(N2C(=O)CC(N3CCN(CCc4ccccn4)CC3)C2=O)cc1 (stereo not shown) [CBK270149] | 95.8%
CNC(=O)c1ccc(OC)c(S(=O)(=O)NC)c1 [CBK270153] | 88.9%
O=C1CC(c2ccc(S(=O)(=O)NCc3ccccc3)cc2)CN1 (stereo not shown) [CBK270155] | 87.5%
Fc1ccc(-c2ccc(CNCc3ccncc3)o2)cc1 [CBK270158C] | 92.7%
CC1(C)Cc2cccc(OCC(=O)O)c2O1 [CBK270161] | 100%
Cc1ccc(-c2cc(O)n(-c3nc(C)cc(C)n3)n2)cc1 [CBK270165] | 97.1%
FC(F)(F)c1ccc(Oc2ccc(-c3noc(-c4cccnc4)n3)cc2)nc1 [CBK270166] | 90.3%
O=C(Nc1ccc2c(c1)oc1ccccc12)C1CCCO1 (stereo not shown) [CBK270168] | 81.9%
CCN1CCN(c2ccc(C(=O)OC)cc2NC(=O)c2ccc(C#N)cc2F)CC1 [CBK270171] | 101%
Cc1cc(-c2cccs2)c(C#N)c(SCc2cccnc2)n1 [CBK270172] | 81%
COC(=O)COc1ccc2cccc(-n3cnnn3)c2c1 [CBK270173] | 84.7%
O=C(NCc1ccccn1)C1CC(=O)N(c2ccccc2)C1 (stereo not shown) [CBK270175] | 88.7%
O=C1CC(C(=O)Nc2ccc3c(c2)OCO3)n2c(nc3ccccc32)N1 (stereo not shown) [CBK270177] | 93.6%
CNS(=O)(=O)c1cc(C(=O)NCc2ccco2)ccc1OC [CBK270180] | 103%
O=C(CN1CCN(c2ncccn2)CC1)N1N=CCC1c1ccccc1 (stereo not shown) [CBK270184] | 89.4%
CCOC(=O)c1cnc2nc3ccccc3n2c1C [CBK270185] | 95.4%
O=C(COc1nc2ccccc2s1)N1N=CCC1c1ccccc1 (stereo not shown) [CBK270188] | 92.7%
CNc1sc(C(=O)c2ccc(OC)c(OC)c2)c(N)c1C#N [CBK270194] | 86.1%
Cc1cc(C)c(S(=O)(=O)NC(C)C)c(C)c1-n1cnnn1 [CBK270197] | 96.5%
Cc1nn2c(C)c(C(=O)Nc3ccccc3)nnc2c1-c1ccccc1 [CBK270198] | 85.6%
COc1ccc(C(=O)N2CCN(c3ccc(NC(=O)c4cccnc4)cc3)CC2)cc1 [CBK270200] | 85.5%

Structure (SMILES) | viability at 28.5 h, 10 µM
COc1ccc(-c2cc(C(F)(F)F)c3c(n2)sc2c(=O)cc(O)[nH]c23)cc1OC [CBK270201] | 84.6%
O=C(CC1SCCNC1=O)NCc1ccccc1 (stereo not shown) [CBK270202] | 99.1%
COCC(C)NS(=O)(=O)c1cc(Cl)ccc1OC (stereo not shown) [CBK270203] | 90.7%
COc1ccc(C)cc1NC(=O)CSc1nc(C)cc(C(F)(F)F)n1 [CBK270205] | 96%
Cc1ccc2c(c1)N(CC(N)=O)C(=O)CO2 [CBK270208] | 92.9%
Cc1cccc(-c2noc(CNC(=O)CSc3ccccc3)n2)c1 [CBK270209] | 98.3%
Cn1c(=O)n(C)c2cc(NC3=NS(=O)(=O)c4ccccc43)ccc21 [CBK270210] | 91.9%
O=C(O)c1ccccc1CSc1ccccn1 [CBK270213] | 98%
Cc1ccc(NC(=O)CC2Nc3ccccc3OC2=O)cc1C (stereo not shown) [CBK270214] | 81.5%
Cc1nc2ccccc2nc1SCc1nc(N)nc(N2CCCCC2)n1 [CBK270218] | 92.2%
CCC(=O)NCc1ccc(-c2nc3ncccc3o2)cc1 [CBK270220] | 108%
Cc1nc2ccc(NC(=O)c3cccc(C(F)(F)F)c3)cc2nc1C [CBK270221] | 88.2%
COC(=O)c1ccc(N2CCOCC2)c(NC(=O)COc2ccccc2)c1 [CBK270222] | 84.6%
O=C(Nc1cccc(-c2noc(CCc3ccccc3)n2)c1)c1cccs1 [CBK270225] | 87.4%
Cc1cc(C)nc(-n2ncc(C#N)c2N)n1 [CBK270227] | 87%
CCN(Cc1nc(-c2ccccc2)no1)C(=O)c1ccoc1C [CBK270229] | 89.3%
Nc1nc(CN2CCN(c3ccccc3F)CC2)nc(N2CCCc3ccccc32)n1 [CBK270234] | 87.4%
Cc1nnc(SCC(=O)NC2CC3CCC2C3)[nH]1 (stereo not shown) [CBK270239] | 88.1%
CC(C)(C)c1ccc(-c2cc(C3CCNCC3)n[nH]2)cc1 [CBK270240] | 94%
COCC(C)NC(=O)C1CCCN(S(=O)(=O)c2ccc(OC)c(C)c2)C1 (stereo not shown) [CBK270242] | 86%
O=C(Nc1cccc(-c2noc(Cc3ccccc3)n2)c1)c1cccs1 [CBK270244] | 101%
COc1ccc(C(=O)Nc2ccc(N3CCN(C(=O)C(C)(C)C)CC3)cc2)cc1OC [CBK270245] | 90.6%
O=C(CSc1nncc(=O)[nH]1)NCc1ccccc1 [CBK270246] | 85.3%
COC(=O)CSc1nnc(-c2cc(Cl)ccc2OC)[nH]1 [CBK270248] | 97%

Structure (SMILES) | viability at 28.5 h, 10 µM
CCOc1ccc(S(=O)(=O)NCCOC)cc1Cl [CBK270251] | 91.5%
COc1cc(CNCc2ccc(F)cc2)cc(Cl)c1OCC(N)=O [CBK270256C] | 89%
CCOc1cccc2cc(C(=O)N3CCN(Cc4ccccc4)CC3)c(=O)oc12 [CBK270259C] | 74.3%
Fc1cccc(-c2nc(-c3cccnc3)no2)c1 [CBK270260] | 92.6%
CCOC(=O)CSc1nc(-c2ccc3c(c2)OCO3)ccc1C#N [CBK270262] | 87.6%
COc1ccc(-c2noc(CN(C(C)=O)C3CCCCC3)n2)cc1 [CBK270264] | 111%
Cc1ccc2c(N)c(C(=O)c3ccc4c(c3)OCCO4)sc2n1 [CBK270265] | 84.2%
CCCc1cc(O)n(-c2nc3ccccc3[nH]2)n1 [CBK270269] | 82.7%
CC(C(=O)N1CCOCC1)N(c1cc(Cl)ccc1Cl)S(C)(=O)=O (stereo not shown) [CBK270270] | 88.8%
COc1cccc(CNCc2ccco2)c1OCc1ccccc1F [CBK270271C] | 92.6%
O=C(Nc1ccccc1C(=O)N1CCOCC1)C1CCN(C(=O)c2ccco2)CC1 [CBK270272] | 105%
Cc1ccc(Cc2c(C)[nH]c3[nH]n(-c4ccccc4)c(=O)c3c2=O)cc1 [CBK270273] | 83.7%
O=C(NCCc1cccs1)C(c1ccccc1)c1ccccc1 [CBK270275] | 90.1%
O=C(O)c1ccc(CN2C(=O)COc3ccccc32)o1 [CBK270276] | 104%
CNS(=O)(=O)c1cc(C(=O)NCc2ccccc2)ccc1OC [CBK270277] | 94.9%
CC(O)CNCc1ccccc1OCc1ccccc1F (stereo not shown) [CBK270278C] | 93.2%
COc1ccc(-c2c3c(nc4sc(C#N)c(N)c24)CCCC3)cc1 [CBK270279] | 80%
COc1ccc(NC(=O)C2CC(=O)NC3=C2C(=O)CC(c2ccco2)C3)cc1 (stereo not shown) [CBK270282] | 90.6%
O=C(Nc1cccc(-c2noc(-c3ccccn3)n2)c1)c1cccs1 [CBK270283] | 88.9%
O=C1CC(c2ccccc2O)CC2=C1C=Nc1ccccc1N2 (stereo not shown) [CBK270287] | 97.4%
CCOC(=O)c1ccsc1NC(=O)C1CC=CCC1C(=O)O (stereo not shown) [CBK270291] | 97.5%
NC(=O)c1ccccc1NC(=O)CN1CCN(Cc2cccc(F)c2)CC1 [CBK270292] | 85.9%
